The test system of test [1] is Cullin-3 (CUL3) neddylation. Briefly: AlphaLISA assay for Cullin-3 (CUL3) neddylation in TF 1 cells. It counts as cell-based. The settings on record: Homo sapiens, 3 hours treatment. The gist of the method: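 Neddylated CUL3 was quantified by AlphaLISA in lysates of TF 1 cells exposed for 3 h to test compound in IMDM without supplements. Percent inhibition set between vehicle and 1 μM DI-1548 positive control; IC50 derived by Hill-equation fitting of dose-response curves.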
(Bead proximity is the source of the signal in Alpha formats.)

Test [2] deals with DCN1 (DCUND1) protein PONY domain (Homo sapiens (Human), UniProt Q96GG9). Briefly: TR-FRET assay, DCN1 binding with FAM-labeled probe. In outline: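 First, the E. coli-derived PONY domain was biotinylated and paired with streptavidin Tb cryptate. Compounds in 0.1% DMSO were then added to DCN1 and FAM-probe (5 nM/20 nM, or 0.31 nM/900 nM total with 800 nM unlabelled) in TritonX, 200 mM NaCl buffer. Finally, TR-FRET ratios were recorded at 1, 5 and 24 hrs.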
DCN1 (DCUND1) protein PONY domain, sequence (Q96GG9 60-248): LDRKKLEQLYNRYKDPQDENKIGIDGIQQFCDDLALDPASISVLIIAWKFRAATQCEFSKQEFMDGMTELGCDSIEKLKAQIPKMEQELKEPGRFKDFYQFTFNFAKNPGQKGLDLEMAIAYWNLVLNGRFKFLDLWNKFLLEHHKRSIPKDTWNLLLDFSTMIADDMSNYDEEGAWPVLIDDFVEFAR
A general note: Time-resolved FRET reads energy transfer from a long-lived donor to a nearby acceptor.

The target of another test is DCN1 protein (Homo sapiens (Human), UniProt Q96GG9). Put plainly: Intact Protein MS Analysis with the RapidFire-TOF System (covalent adduct formation). Format: binding. To be noted: MS Emax; 400 nM DCN1, 3 hours at room temperature. In outline:
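Tag-cleaved human DCN1 (400 nM) expressed in E. coli, in 25 mM Tris-HCl, 200 mM NaCl, 1 mM DTT, was incubated with 11 compound concentrations for 3 h at room temperature and quenched with 0.2% formic acid. Intact-protein Q-TOF MS with deconvolution detected the compound adduct mass.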

Setting [3] is: 24 hr after treatment with compound, read-out: TR FRET IC50 24 hr.
Where [4] appears, read: read-out: TR FRET IC50 1 hr, 1 hr after treatment with compound.
Where [5] appears, read: TR FRET IC50 1 hr (nM), 1 hr after treatment with compound.

Where two headings read alike, the source gives them in different places.

DCN1 protein, sequence (Q96GG9 whole entry): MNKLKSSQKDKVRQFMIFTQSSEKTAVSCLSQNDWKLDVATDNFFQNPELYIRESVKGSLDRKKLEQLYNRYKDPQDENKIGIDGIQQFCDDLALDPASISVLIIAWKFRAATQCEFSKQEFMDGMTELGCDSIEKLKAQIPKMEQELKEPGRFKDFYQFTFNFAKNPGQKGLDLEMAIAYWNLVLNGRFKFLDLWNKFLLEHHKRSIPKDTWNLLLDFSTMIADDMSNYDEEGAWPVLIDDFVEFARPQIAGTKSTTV

With `CCN1C(=O)[C@@H](NC(=O)c2cccc(C(F)(F)F)c2)[C@@H](c2ccc(F)cc2)c2c(C(=O)N(CC#N)CCCN(C)C)nn(C3CCOCC3)c21` [Compound I-353], the IC50 (in general, the midpoint of a concentration-inhibition curve) is at most 100 nM in test [1] (TF-1, 3 h); at most 200 nM in test [2] (setting [3]); at most 200 nM in test [2] (setting [4]). Besides, at DCN1 protein, the “% Adduct Formation” value is “+++ (MS Emax % adduct formation greater than 80.0 and less than or equal to 100.0)”.
For the compound `CCN1C(=O)[C@@H](NC(=O)c2cccc(C(F)(F)F)c2)[C@@H](c2ccc(F)cc2)c2c(C(=O)N3CCC[C@H]3C#N)nn(-c3cccc(OCCN4CC5(COC5)C4)c3)c21` [Compound I-342], the half-maximal inhibitory concentration (IC50) was at most 100 nM in test [1] (TF-1, 3 h); at most 200 nM in test [2] (setting [3]); at most 200 nM in test [2] (setting [4]). Moreover, the “% Adduct Formation” value at DCN1 protein is “+++ (MS Emax % adduct formation greater than 80.0 and less than or equal to 100.0)”.
In the case of `CCN1C(=O)[C@@H](NC(=O)c2cccc(C(F)(F)F)c2)[C@@H](C2CC2)c2c(C(=O)N(C)C(C)C#N)nn(C3CCOCC3)c21` (mixture of isomers) [Compound I-349], the IC50 in test [1] (TF-1, 3 h) is at most 100 nM; in test [2] (setting [3]), at most 200 nM; in test [2] (setting [4]), at most 200 nM. Moreover, the “% Adduct Formation” value on DCN1 protein is “+++ (MS Emax % adduct formation greater than 80.0 and less than or equal to 100.0)”.
With `CCN1C(=O)[C@@H](NC(=O)c2cccc(C(F)(F)F)c2)[C@@H](c2ccc(F)cc2)c2c(C(=O)N3CCC[C@H]3C#N)nn(-c3cccc(OCCCN4CCOCC4)c3)c21` [Compound I-338], the half-inhibitory concentration (IC50) in test [1] (TF-1, 3 h) is at most 100 nM; in test [2] (setting [3]) it was at most 200 nM; in test [2] (setting [5]), 1000 to 3000 nM. Also, the “% Adduct Formation” value at DCN1 protein is “+++ (MS Emax % adduct formation greater than 80.0 and less than or equal to 100.0)”.
For `CCN1C(=O)[C@@H](NC(=O)c2cccc(C(F)(F)F)c2)[C@@H](c2ccc(F)cc2)c2c(C(=O)N3CCC[C@H]3C#N)nn(-c3cccc(OCCCN4CCC5(CC4)COC5)c3)c21` [Compound I-336], the half-inhibitory concentration (IC50) in test [1] (TF-1, 3 h) was at most 100 nM; in test [2] (setting [3]) it was at most 200 nM; in test [2] (setting [4]), at most 200 nM. For the same compound, at DCN1 protein, the “% Adduct Formation” value was “+++ (MS Emax % adduct formation greater than 80.0 and less than or equal to 100.0)”.
As to `CCN1C(=O)[C@@H](NC(=O)c2cccc(C(F)(F)F)c2)[C@@H](c2ccc(F)cc2)c2c(C(=O)N(C)[C@@H](C)C#N)nn(C3CCOCC3)c21` [Compound I-368], the IC50 in test [1] (TF-1, 3 h) is at most 100 nM; in test [2] (setting [3]), at most 200 nM; in test [2] (setting [4]) it was at most 200 nM. Further, the “% Adduct Formation” value at DCN1 protein was “+++ (MS Emax % adduct formation greater than 80.0 and less than or equal to 100.0)”.
In the case of `CCN1C(=O)[C@@H](NC(=O)c2cccc(C(F)(F)F)c2)[C@@H](c2ccc(F)cc2)c2c(C(=O)N(C)[C@H](C#N)CCO)nn(-c3ccccc3)c21` (relative stereo) [Compound I-301, (4S,5S)—N-[(1S*)-1-cyano-3-hydroxypropyl]-7-ethyl-4-(4-fluorophenyl)-N-methyl-6-oxo-1-phenyl-5-[3-(trifluoromethyl)benzamido]-4H,5H-pyrazolo[3,4-b]pyridine-3-carboxamide], the IC50 in test [1] (TF-1, 3 h) is at most 100 nM; in test [2] (setting [3]), at most 200 nM; in test [2] (setting [5]), at most 200 nM. Besides, at DCN1 protein, the “% Adduct Formation” value was “++ (MS Emax % adduct formation greater than 30.0 and less than or equal to 80.0)”.
As for `CCN1C(=O)[C@@H](NC(=O)c2cccc(C(F)(F)F)c2)[C@@H](c2ccc(F)cc2)c2c(C(=O)N3CCOC[C@@H]3C#N)nn(-c3ccccc3)c21` (mixture of isomers) [Compound I-297], the IC50 is at most 100 nM in test [1] (TF-1, 3 h); at most 200 nM in test [2] (setting [3]); 1000 to 3000 nM in test [2] (setting [5]). Besides, the “% Adduct Formation” value on DCN1 protein is “+++ (MS Emax % adduct formation greater than 80.0 and less than or equal to 100.0)”.
Take `CCN1C(=O)[C@@H](NC(=O)c2cccc(C(F)(F)F)c2)[C@@H](c2ccc(F)cc2)c2c(C(=O)N(C)[C@@H](C#N)CCN3CCOCC3)nn(-c3ccccc3)c21` [Compound I-309]: the half-inhibitory concentration (IC50) in test [1] (TF-1, 3 h) is at most 100 nM; in test [2] (setting [3]), at most 200 nM; in test [2] (setting [4]) it was at most 200 nM. Also, the “% Adduct Formation” value at DCN1 protein was “+ (MS Emax % adduct formation greater than or equal to 0.0 and less than or equal to 30.0)”.
Turning to `CCN1C(=O)[C@@H](NC(=O)c2cccc(SC(F)(F)F)c2)[C@@H](C2CC2)c2c(C(=O)N3[C@H](C#N)C[C@H]4C[C@H]43)nn(C3CCOCC3)c21` [Compound I-389], the half-maximal inhibitory concentration (IC50) was at most 100 nM in test [1], at most 200 nM in test [2] (setting [3]) and at most 200 nM in test [2] (setting [4]). The “% Adduct Formation” value on DCN1 protein is “+++ (MS Emax % adduct formation greater than 80.0 and less than or equal to 100.0)”.
For the compound `CCN1C(=O)[C@@H](NC(=O)c2cccc(C(F)(F)F)c2)[C@@H](c2ccc(F)cc2)c2c(C(=O)N(C)[C@H](C)C#N)nn(C3CCOCC3)c21` [Compound I-367], the IC50 in test [1] (TF-1, 3 h) was at most 100 nM; in test [2] (setting [3]), at most 200 nM; in test [2] (setting [4]), at most 200 nM. For the same compound, the “% Adduct Formation” value at DCN1 protein is “+++ (MS Emax % adduct formation greater than 80.0 and less than or equal to 100.0)”.
Turning to `CCN1C(=O)[C@@H](NC(=O)c2cccc(C(F)(F)F)c2)[C@@H](C2CCCC2)c2c(C(=O)N3[C@H](C#N)C[C@H]4C[C@H]43)nn(C3CCOCC3)c21` [Compound I-376], the IC50 in test [1] (TF-1, 3 h) was at most 100 nM; in test [2] (setting [3]), at most 200 nM; in test [2] (setting [4]), at most 200 nM. Besides, at DCN1 protein, the “% Adduct Formation” value is “+++ (MS Emax % adduct formation greater than 80.0 and less than or equal to 100.0)”.
Regarding `CCN1C(=O)[C@@H](NC(=O)c2cccc(C(F)(F)F)c2)[C@@H](c2ccc(F)cc2)c2c(NC(=O)CC#N)nn(-c3ccccc3)c21` (racemic) [Compound I-80], the half-maximal inhibitory concentration (IC50) is at most 100 nM in test [1] (TF-1, 3 h); 1000 to 3000 nM in test [2] (setting [3]); 1000 to 3000 nM in test [2] (setting [5]). Moreover, the “% Adduct Formation” value at DCN1 protein was “+ (MS Emax % adduct formation greater than or equal to 0.0 and less than or equal to 30.0)”.
Regarding `CCN1C(=O)[C@@H](NC(=O)c2ccn(C(F)(F)F)n2)[C@@H](c2ccc(F)cc2)c2c(C(=O)N3CCNC[C@H]3C#N)nn(-c3ccccc3)c21` [Compound I-346, N-((4S,5S)-3-((S)-2-cyanopiperazine-1-carbonyl)-7-ethyl-4-(4-fluorophenyl)-6-oxo-1-phenyl-4,5,6,7-tetrahydro-1H-pyrazolo[3,4-b]pyridin-5-yl)-1-(trifluoromethyl)-1H-pyrazole-3-carboxamide], the IC50 in test [1] (TF-1, 3 h) is at most 100 nM; in test [2] (setting [3]), at most 200 nM; in test [2] (setting [5]) it was 200 to 1000 nM. Besides, the “% Adduct Formation” value on DCN1 protein is “+++ (MS Emax % adduct formation greater than 80.0 and less than or equal to 100.0)”.
With `CCN1C(=O)[C@@H](NC(=O)c2cccc(C(F)(F)F)c2)[C@@H](c2ccc(F)cc2)c2c(C(=O)N(C)[C@@H](C#N)CCN3CC4CC(C3)O4)nn(-c3ccccc3)c21` [Compound I-313], the concentration for half-maximal inhibition (IC50) in test [1] (TF-1, 3 h) is at most 100 nM; in test [2] (setting [3]), at most 200 nM; in test [2] (setting [4]), at most 200 nM. The “% Adduct Formation” value at DCN1 protein was “++ (MS Emax % adduct formation greater than 30.0 and less than or equal to 80.0)”.
For `C=C(CN1CCOCC1)C(=O)NCc1nn(-c2ccccc2)c2c1[C@H](c1ccc(F)cc1)[C@H](NC(=O)c1cccc(C(F)(F)F)c1)C(=O)N2CC` (racemic) [Compound I-67], the concentration for half-maximal inhibition (IC50) in test [1] (TF-1, 3 h) was 100 to 1000 nM; in test [2] (setting [3]), at most 200 nM; in test [2] (setting [4]), at most 200 nM. For the same compound, at DCN1 protein, the “% Adduct Formation” value is “+ (MS Emax % adduct formation greater than or equal to 0.0 and less than or equal to 30.0)”.
Consider `C=C(CN1CCN(C2COC2)CC1)C(=O)NCc1nn(-c2ccccc2)c2c1[C@H](c1ccc(F)cc1)[C@H](NC(=O)c1cccc(C(F)(F)F)c1)C(=O)N2CC` (racemic) [Compound I-57], for which the IC50 in test [1] (TF-1, 3 h) is at most 100 nM; in test [2] (setting [3]) it was at most 200 nM; in test [2] (setting [4]), at most 200 nM. On DCN1 protein, the “% Adduct Formation” value was “++ (MS Emax % adduct formation greater than 30.0 and less than or equal to 80.0)”.
On to `CCN1C(=O)[C@@H](NC(=O)c2cccc(C(F)(F)F)c2)[C@@H](c2ccc(F)cc2)c2c(C(=O)N(CC#N)CCN3CC4CC(C3)O4)nn(-c3ccccc3)c21` (mixture of isomers) [Compound I-322], for which the half-inhibitory concentration (IC50) in test [1] (TF-1, 3 h) is at most 100 nM; in test [2] (setting [3]) it was at most 200 nM; in test [2] (setting [4]), at most 200 nM. Besides, the “% Adduct Formation” value at DCN1 protein is “+++ (MS Emax % adduct formation greater than 80.0 and less than or equal to 100.0)”.
For `CCN1C(=O)[C@@H](NC(=O)c2cccc(C(F)(F)F)c2)[C@@H](c2ccc(F)cc2)c2c(C(=O)N3[C@H](C#N)C[C@H]4C[C@H]43)nn(C3CCOCC3)c21` [Compound I-329], the IC50 is at most 100 nM in test [1] (TF-1, 3 h); at most 200 nM in test [2] (setting [3]); at most 200 nM in test [2] (setting [4]). At DCN1 protein, the “% Adduct Formation” value was “+++ (MS Emax % adduct formation greater than 80.0 and less than or equal to 100.0)”.
On to `CCN1C(=O)[C@H](NC(=O)c2cccc(C(F)(F)F)c2)[C@H](c2ccc(F)cc2)c2c(C(=O)N3CCC[C@H]3C#N)nn(-c3cccc(OCCCN4CC5(COC5)C4)c3)c21` (stereo in doubt) [Compound I-293], for which the 50% inhibitory concentration (IC50) is at most 100 nM in test [1] (TF-1, 3 h); at most 200 nM in test [2] (setting [3]); at most 200 nM in test [2] (setting [5]). Further, at DCN1 protein, the “% Adduct Formation” value was “+++ (MS Emax % adduct formation greater than 80.0 and less than or equal to 100.0)”.

(Values after patent publication US20250163057A1, “DCN-1 MODULATING COMPOUNDS AND METHODS OF USE THEREOF” (Cellarity, Inc., priority 2023, published 2025).)
